From patent publication US6410054B1, “Immediate release eplerenone compositions” (G. D. Searle & Co., priority 1998, dated 2002)
Read-outs that look alike come from different tables or passages of the source.

Columns and labels:
Type in all cases: in vivo, humans
[1] = Multiple dose study: plasma pharmacokinetics and urinary excretion; conditions: for AUC / Cmax / Tmax / half-life: male, human, plasma, oral; for half-life: read-out: T½ (converted)
Procedure: Multiple oral dose tolerability and the pharmacokinetics of several dosages of eplerenone were evaluated in a double-blind, randomized, placebo-controlled, rising oral dose, sequential panel study of 40 healthy male subjects (five groups of eight subjects). The study medication was administered in […] sequential dose panels, with each panel including eplerenone, spironolactone and placebo. […] The 100 mg and 200 mg dose capsules corresponded to those described in Examples 7 and 8, respectively. Following a 48-hour interval, the study drug was administered once a day for 11 days. Antialdosterone activity was determined following a fludrocortisone challenge on Days 12-13.

[2] = Effect of food study: plasma pharmacokinetics fasted vs high-fat breakfast; conditions: for concentration at 0.5 h / concentration at 1 h / concentration at 2 h / concentration at 3 h / concentration at 4 h / concentration at 6 h / concentration at 8 h / concentration at 28 h / concentration at 48 h / concentration at 72 h / concentration at 12 h / concentration at 16 h / concentration at 24 h / concentration at 32 h / concentration at -0.5 h: male, human, plasma, oral, 100 mg, 100 mg eplerenone capsule; for concentration at 0.5 h: 0.5 hours after dosing; for concentration at 1 h: 1.0 hours after dosing; for concentration at 2 h: 2.0 hours after dosing; for concentration at 3 h: 3.0 hours after dosing; for concentration at 4 h: 4.0 hours after dosing; for concentration at 6 h: 6.0 hours after dosing; for concentration at 8 h: 8.0 hours after dosing; for concentration at 28 h: 28.0 hours after dosing; for concentration at 48 h: 48.0 hours after dosing; for concentration at 72 h: 72.0 hours after dosing; for concentration at 12 h / concentration at 16 h / concentration at 24 h / concentration at 32 h: […] after dosing; for concentration at -0.5 h: −0.5 hours after dosing
Procedure: An open-label randomized, cross-over study was employed to evaluate the pharmacokinetic profiles of eplerenone under fasted and fed conditions, and the safety and tolerability of eplerenone. Safety was assessed based on adverse events, vital signs and clinical laboratory tests. Twelve healthy male subjects were randomized to receive a single 100 mg dose of eplerenone on days 1 and 8 under (i) fasted conditions, or (ii) immediately following a high-fat breakfast. The subjects were orally administered (dosed) a single 100 mg dose of eplerenone in the form of the capsule described in Example 7, together with approximately 200 to 240 mL of water at 0800 hours on days 1 and 8. Subjects randomized to receive a high-fat breakfast were to completely ingest the meal within 20 minutes prior to dosing. The high-fat meal contained approximately 33 g protein, 75 g fat, 58 g carbohydrates and 1000 calories. […] All adverse events were mild in severity.

[3] = ADME study of [14C]eplerenone oral solution: excretion in urine, feces, breath
Procedure: An open-label, single dose study was employed to evaluate the absorption, distribution, metabolism and elimination profile of a single 100 mg dose of an oral solution of eplerenone.
The study employed eight healthy male humans. Each subject received a single 100 mg oral dose of a solution of [^14C]eplerenone (specific activity 0.75 μCi/mg). Plasma, saliva, breath, urine and fecal samples were collected at predetermined intervals and analyzed for sample radioactivity and the concentration of eplerenone and its open lactone ring form. Safety was determined on the basis of laboratory tests, vital signs, and the occurrence and types of adverse events.
The subjects, who underwent an overnight food fast prior to administration of the dose, received at 0800 hours a single 100 mg oral dose of an aqueous oral solution of radiolabeled eplerenone reconstituted in 80 mL of an apple juice/hydroxypropyl-β-cyclodextrin mixture. The subjects swallowed about 200 mL of water one, two and three hours post dosing.
Blood samples were collected at −0.5 (predose), 0.5, 1, 1.5, 2, 2.5, 3, 4, 6, 8, 12, 16, 24, 36, 48, 72 and 96 hours post dose. […] Individual fecal samples were collected beginning immediately after dosing and continuing through 0800 hours on day 8. In addition, one predose fecal sample was provided. Saliva samples were taken at 0.5 hour predose and at 0.5, 1, 2, 4, 6, 12, and 24 hours postdose. Breath samples were taken at 0.5 hour predose and at 1, 2, 3, 4, 6, 8, 12, 24, 36, 48 and 72 hours postdose.

[4] = 100 mg, eplerenone 100 mg Dose, Multiple Dose
[5] = 100 mg, eplerenone 100 mg Dose, Single Dose
[6] = 300 mg, eplerenone 300 mg Dose, Multiple Dose
[7] = 300 mg, eplerenone 300 mg Dose, Single Dose
[8] = 1000 mg, eplerenone 1000 mg Dose, Multiple Dose
[9] = 1000 mg, eplerenone 1000 mg Dose, Single Dose
[10] = 100 mg [14C]eplerenone oral solution
[11] = 100 mg [14C]eplerenone oral solution, mean

COC(=O)C1CC2=CC(=O)CCC2(C)C23OC2CC2(C)C(CC[C@@]24CCC(=O)O4)C13 (stereo partly drawn) [eplerenone, methyl hydrogen 9,11α-epoxy-17α-hydroxy-3-oxopregn-4-ene-7α,21-dicarboxylate, γ-lactone]
dose proportionality of plasma concentrations and dose-adjusted AUC ([1]; 100 mg to 1000 mg, single or multiple doses): lack of dose proportionality | plasma concentrations at 24 hours postdose ([1]; all dosing groups (100, 300, 1000 mg)): detectable | AUC [1, 4]: 11800 ng·h/mL | Cmax [1, 4]: 1900 ng/mL | Tmax [1, 4]: 1.1 h | half-life [1, 4]: 4 h | AUC [1, 5]: 11300 ng·h/mL | Cmax [1, 5]: 1750 ng/mL | Tmax [1, 5]: 1.8 h | half-life [1, 5]: 3.9 h | AUC [1, 6]: 26500 ng·h/mL | Cmax [1, 6]: 3580 ng/mL | Tmax [1, 6]: 1.8 h | half-life [1, 6]: 4.6 h | AUC [1, 7]: 23900 ng·h/mL | Cmax [1, 7]: 3230 ng/mL | Tmax [1, 7]: 2.4 h | half-life [1, 7]: 4.6 h | AUC [1, 8]: 63200 ng·h/mL | Cmax [1, 8]: 7390 ng/mL | Tmax [1, 8]: 1.4 h | half-life [1, 8]: 6.2 h | AUC [1, 9]: 62100 ng·h/mL | Cmax [1, 9]: 6880 ng/mL | Tmax [1, 9]: 2 h | half-life [1, 9]: 8.7 h | accumulation ([1]; once a day for 11 days): no significant or dose-related accumulation | effect of high-fat meal on AUC0-96 ([2]; 100 mg capsule, fed vs fasted): minimal or no measurable effect | effect of high-fat meal on Cmax ([2]; 100 mg capsule, fed vs fasted): reduction | effect of high-fat meal on Tmax ([2]; 100 mg capsule, fed vs fasted): increase | effect of high-fat meal on T½ ([2]; 100 mg capsule, fed vs fasted): minimal or no measurable effect | concentration at 0.5 h ([2]; Fasted Conditions): 1010 ng/mL | concentration at 1 h ([2]; Fasted Conditions): 1560 ng/mL | concentration at 2 h ([2]; Fasted Conditions): 1390 ng/mL | concentration at 3 h ([2]; Fasted Conditions): 1170 ng/mL | concentration at 4 h ([2]; Fasted Conditions): 955 ng/mL | concentration at 6 h ([2]; Fasted Conditions): 587 ng/mL | concentration at 8 h ([2]; Fasted Conditions): 388 ng/mL | concentration at 28 h ([2]; Fasted Conditions): 7.62 ng/mL | concentration at 48 h ([2]; Fasted Conditions): 0 ng/mL | concentration at 72 h ([2]; Fasted Conditions): 0 ng/mL | concentration at 12 h ([2]; Fasted Conditions): 151 ng/mL | concentration at 16 h ([2]; Fasted Conditions): 68.8 ng/mL | concentration at 24 h ([2]; Fasted Conditions): 17.7 ng/mL | concentration at 32 h ([2]; Fasted Conditions): 3.28 ng/mL | concentration at -0.5 h ([2]; Fasted Conditions): 0 ng/mL | concentration at 0.5 h ([2]; High Fat Breakfast): 71.2 ng/mL | concentration at 1 h ([2]; High Fat Breakfast): 366 ng/mL | concentration at 2 h ([2]; High Fat Breakfast): 712 ng/mL | concentration at 3 h ([2]; High Fat Breakfast): 1040 ng/mL | concentration at 4 h ([2]; High Fat Breakfast): 1240 ng/mL | concentration at 6 h ([2]; High Fat Breakfast): 946 ng/mL | concentration at 8 h ([2]; High Fat Breakfast): 673 ng/mL | concentration at 28 h ([2]; High Fat Breakfast): 21.7 ng/mL | concentration at 48 h ([2]; High Fat Breakfast): 1.91 ng/mL | concentration at 72 h ([2]; High Fat Breakfast): 0 ng/mL | concentration at 12 h ([2]; High Fat Breakfast): 282 ng/mL | concentration at 16 h ([2]; High Fat Breakfast): 130 ng/mL | concentration at 24 h ([2]; High Fat Breakfast): 39 ng/mL | concentration at 32 h ([2]; High Fat Breakfast): 7.51 ng/mL | concentration at -0.5 h ([2]; High Fat Breakfast): 0 ng/mL | share of urinary and fecal radioactivity due to eplerenone [3, 10]: less than 15% | urinary radioactivity excreted within the first 24 hours [3, 10]: Over 90% | dose excreted as total radioactivity in feces [3, 11]: 32.0% | dose excreted as total radioactivity in urine [3, 11]: 66.6% | dose excreted in feces as the named form [3, 11]: 0.807% | dose excreted in urine as the named form [3, 11]: 1.65% | total radioactivity in the breath ([3]; any time point, any subject): no detectable concentrations
